pIC50: −log10 of the molar value.

The target in experiment [1] is T1, BCAT2 (Homo sapiens, UniProt O15382).
T1 sequence (O15382 28-392): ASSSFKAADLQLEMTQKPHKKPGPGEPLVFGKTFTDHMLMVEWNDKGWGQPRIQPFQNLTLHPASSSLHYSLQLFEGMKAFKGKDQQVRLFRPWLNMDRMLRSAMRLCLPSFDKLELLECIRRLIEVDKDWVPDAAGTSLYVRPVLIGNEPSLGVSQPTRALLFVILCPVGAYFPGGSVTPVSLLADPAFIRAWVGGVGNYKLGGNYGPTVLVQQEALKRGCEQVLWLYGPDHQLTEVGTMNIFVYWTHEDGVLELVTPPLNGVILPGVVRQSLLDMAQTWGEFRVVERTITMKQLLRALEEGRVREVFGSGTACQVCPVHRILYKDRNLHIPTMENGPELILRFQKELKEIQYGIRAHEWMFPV
Put plainly: BCAT2 in vitro cell inhibition using engineered A549 cells (KMV cell assay, 13C6-KMV by LC-MS/MS). It is filed as cell-based. Also on record: The result was an engineered A549 cell line that expressed endogenous BCAT2; endogenous in cells; host or cells: A549 cells with MUT and BCAT1 knocked out by CRISPR/CAS9; key to BCAT2 Cell Inhibition: A: less than or equal to 0.100 μM; B: greater than 0.100 and less than or equal to 0.500 μM; C: greater than 0.500 and less than or equal to 1.000 μM; d: greater than 1.000 μM; E: no fit. Particulars: average where tested multiple times.

For experiment [2], the target named is T1, BCAT2. Briefly: BCAT2 in vitro enzyme inhibition assay (resazurin/diaphorase-coupled fluorescence). It is filed as biochemical. Particulars: average where tested multiple times. In short, it runs like this: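 Coupled fluorescence readout: glutamate formed from L-leucine/α-ketoglutarate transamination drives GDH/NAD/diaphorase reduction of resazurin (Ex 540/Em 590). Human BCAT2 was first exposed 1 h at room temperature to compound, top final 100 μM in 3-fold, 10-point series; substrate reaction ran 1 h before SDS quench, in technical duplicate with DMSO max and enzyme-free min controls.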
A general note: The colour change of resazurin is a common sign of viable cells or microbes.

Take `O=C(N[C@H]1CCC[C@@H](n2c(-c3ccccc3F)nc3cnc(O[C@@H]4CCOC4)cc32)C1)c1ncc(Cl)s1` [Example 266, 5-chloro-N-((1S,3R)-3-(2-(2-fluorophenyl)-6-(((R)-tetrahydrofuran-3-yl)oxy)-1H-imidazo[4,5-c]pyridin-1-yl)cyclohexyl)thiazole-2-carboxamide]: the “BCAT2 Cell Inhibition” value on BCAT2 [1] is “E”. At BCAT2 [2], the pIC50 – broadly, −log10 of the IC50, conventionally taken in molar units – is 6.30 to 7.00.

For `CC(C)Cc1nc2cnc(-c3ccccn3)cc2n1[C@H]1C[C@H](O)C[C@@H](NC(=O)c2ncc(Cl)s2)C1` (single isomer, unassigned) [Example 215], the “BCAT2 Cell Inhibition” value at BCAT2 [1] is reported as “E”. On BCAT2 [2], this molecule had a pIC50 of 6.00 to 6.30.

On to `CC(C)Cc1nc2cnc(-n3nccn3)cc2n1[C@@H]1COC[C@H](NC(=O)c2ccc(Cl)s2)C1` (single isomer, unassigned) [Example 140], for which, at BCAT2 [1], the “BCAT2 Cell Inhibition” value is given as “E”. For the same molecule, the pIC50 against BCAT2 [2] is below 6.00.

Consider `COC(=O)N1C[C@@H](NC(=O)c2ccc(Cl)s2)C[C@@H](n2c(-c3ccccc3F)nc3cnc(-c4nc[nH]n4)cc32)C1` [Example 463, methyl (3S,5R)-3-(5-chlorothiophene-2-carboxamido)-5-(2-(2-fluorophenyl)-6-(1H-1,2,4-triazol-3-yl)-1H-imidazo[4,5-c]pyridin-1-yl)piperidine-1-carboxylate], for which the figures for the pIC50 against BCAT2 [1] and against BCAT2 [2] were 6.00 to 6.30 and at least 7.00, respectively.

For the molecule `CC(C)Cc1nc2cnc(N3CCC[C@H]3C(N)=O)cc2n1[C@@H]1CCC[C@H](NC(=O)c2ncc(Cl)s2)C1` [Example 307, N-((1S,3R)-3-(6-((S)-2-carbamoylpyrrolidin-1-yl)-2-isobutyl-1H-imidazo[4,5-c]pyridin-1-yl)cyclohexyl)-5-chlorothiazole-2-carboxamide], the “BCAT2 Cell Inhibition” value on BCAT2 [1] was “E”. Moreover, on BCAT2 [2], the negative-log IC50 (pIC50) was below 6.00.

As to `CC(C)Cc1nc2cnc(-c3cc(C(F)(F)F)n[nH]3)cc2n1[C@H]1CCC[C@@H](NC(=O)c2ncc(Cl)s2)[C@@H]1O` [Example 217, 5-chloro-N-((1R,2S,3S)-2-hydroxy-3-(2-isobutyl-6-(3-(trifluoromethyl)-1H-pyrazol-5-yl)-1H-imidazo[4,5-c]pyridin-1-yl)cyclohexyl)thiazole-2-carboxamide], at BCAT2 [1], the “BCAT2 Cell Inhibition” value is “E”. On BCAT2 [2], this molecule gave a pIC50 below 6.00.

On to `CC(C)Cc1nc2cnc(-c3nc[nH]n3)cc2n1[C@H]1C[C@H](O)C[C@@H](NC(=O)c2ncc(Cl)s2)C1` [Example 257, 5-chloro-N-((1S,3R,5R)-3-hydroxy-5-(2-isobutyl-6-(1H-1,2,4-triazol-3-yl)-1H-imidazo[4,5-c]pyridin-1-yl)cyclohexyl)thiazole-2-carboxamide], for which the “BCAT2 Cell Inhibition” value on BCAT2 [1] was “E”. On BCAT2 [2], the pIC50 was 6.00 to 6.30.

Take `CC(C)Cc1nc2cnc(-c3nc[nH]n3)cc2n1[C@H]1CCC[C@@H](NC(=O)c2ncc(Cl)s2)[C@@H]1O` [Example 251, 5-chloro-N-((1R,2S,3S)-2-hydroxy-3-(2-isobutyl-6-(1H-1,2,4-triazol-3-yl)-1H-imidazo[4,5-c]pyridin-1-yl)cyclohexyl)thiazole-2-carboxamide]: the negative-log IC50 (pIC50) was below 6.00 against BCAT2 [1] and 6.30 to 7.00 against BCAT2 [2].

For the molecule `O=C(N[C@@H]1C[C@@H](O)C[C@H](n2c(-c3ccccc3F)nc3cnc(-c4ccn[nH]4)cc32)C1)c1ncc(Cl)s1` (single isomer, unassigned) [Example 259], the pIC50 against BCAT2 [1] is below 6.00; against BCAT2 [2], 6.30 to 7.00.

`CO[C@@H]1C[C@@H](NC(=O)c2ncc(Cl)s2)C[C@@H](n2c(-c3ccccc3F)nc3cnc(N4CCC[C@H]4CO)cc32)C1` [Example 430, 5-chloro-N-((1S,3R,5R)-3-(2-(2-fluorophenyl)-6-((S)-2-(hydroxymethyl)pyrrolidin-1-yl)-1H-imidazo[4,5-c]pyridin-1-yl)-5-methoxycyclohexyl)thiazole-2-carboxamide]: the negative-log IC50 (pIC50) at BCAT2 [1] and against BCAT2 [2] was below 6.00 each time.

On to `O=C(N[C@H]1CCC[C@@H](n2c(-c3ccccc3F)nc3ccc(-c4ncco4)cc32)[C@@H]1O)c1ncc(Cl)s1` [Example 465, 5-chloro-N-((1S,2R,3R)-3-(2-(2-fluorophenyl)-6-(oxazol-2-yl)-1H-benzo[d]imidazol-1-yl)-2-hydroxycyclohexyl)thiazole-2-carboxamide], for which the pIC50 against BCAT2 [1] and at BCAT2 [2] was at least 7.00 each time.

With `CC(C)Cc1nc2cnc(-n3cncn3)cc2n1[C@@H]1CCC[C@H](NC(=O)c2ncc(Cl)s2)C1` [Example 323, 5-chloro-N-((1S,3R)-3-(2-isobutyl-6-(1H-1,2,4-triazol-1-yl)-1H-imidazo[4,5-c]pyridin-1-yl)cyclohexyl)thiazole-2-carboxamide], the figures for the negative-log IC50 (pIC50) against BCAT2 [1] and on BCAT2 [2] were below 6.00 and 6.30 to 7.00, respectively.

For the molecule `CO[C@@H]1C[C@@H](NC(=O)c2ncc(Cl)s2)C[C@@H](n2c(-c3ccccc3C#N)nc3cnc(-c4nc[nH]n4)cc32)C1` (stereo in doubt) [Example 446, 5-chloro-N-((1S,3R,5R)-3-(2-(2-cyanophenyl)-6-(1H-1,2,4-triazol-3-yl)-1H-imidazo[4,5-c]pyridin-1-yl)-5-methoxycyclohexyl)thiazole-2-carboxamide], the negative-log IC50 (pIC50) on BCAT2 [1] and against BCAT2 [2] was at least 7.00 in each case.

Regarding `CNC(=O)c1cc2nc(CC(C)C)n([C@H]3CCC[C@@H](NC(=O)c4ncc(Cl)s4)[C@@H]3O)c2cn1` [Example 279, 5-chloro-N-((1R,2S,3S)-2-hydroxy-3-(2-isobutyl-6-(methylcarbamoyl)-3H-imidazo[4,5-c]pyridin-3-yl)cyclohexyl)thiazole-2-carboxamide], the “BCAT2 Cell Inhibition” value on BCAT2 [1] is “E”. The same molecule gave a pIC50 at BCAT2 [2] below 6.00.

As for `O=C(N[C@@H]1C[C@@H](O)C[C@H](n2c(-c3ccccc3F)nc3cnc(-c4ncco4)cc32)C1)c1ncc(Cl)s1` [Example 261, 5-chloro-N-((1S,3R,5R)-3-(2-(2-fluorophenyl)-6-(oxazol-2-yl)-1H-imidazo[4,5-c]pyridin-1-yl)-5-hydroxycyclohexyl)thiazole-2-carboxamide], the negative-log IC50 (pIC50) was below 6.00 against BCAT2 [1] and 6.30 to 7.00 on BCAT2 [2].

For the molecule `CO[C@H]1C[C@H](NC(=O)c2ncc(Cl)s2)C[C@H](n2c(-c3ccccc3F)nc3cnc(-n4cncn4)cc32)C1` (stereo in doubt) [Example 415, 5-chloro-N-((1R,3S,5S)-3-(2-(2-fluorophenyl)-6-(1H-1,2,4-triazol-1-yl)-1H-imidazo[4,5-c]pyridin-1-yl)-5-methoxycyclohexyl)thiazole-2-carboxamide], the “BCAT2 Cell Inhibition” value at BCAT2 [1] is on record as “E”. The pIC50 at BCAT2 [2] was below 6.00.

On to `CC(=O)N[C@@H](c1nc2cnc(-c3nc[nH]n3)cc2n1[C@@H]1CCC[C@H](NC(=O)c2ncc(Cl)s2)C1)C(C)C` [Example 369, N-((1S,3R)-3-(2-((R)-1-acetamido-2-methylpropyl)-6-(1H-1,2,4-triazol-3-yl)-1H-imidazo[4,5-c]pyridin-1-yl)cyclohexyl)-5-chlorothiazole-2-carboxamide], for which, on BCAT2 [1], the “BCAT2 Cell Inhibition” value was “E”. The molecule also gave a pIC50 on BCAT2 [2] of 6.00 to 6.30.

On to `O=C(N[C@H]1CCC[C@@H](n2c(CN3CCCCC3)nc3cnc(-n4nccn4)cc32)C1)c1ncc(C(F)F)s1` [Example 95, 5-(difluoromethyl)-N-((1S,3R)-3-(2-(piperidin-1-ylmethyl)-6-(2H-1,2,3-triazol-2-yl)-1H-imidazo[4,5-c]pyridin-1-yl)cyclohexyl)thiazole-2-carboxamide], for which, at BCAT2 [1], the “BCAT2 Cell Inhibition” value was “E”. Besides, on BCAT2 [2], the negative-log IC50 (pIC50) was below 6.00.

Turning to `O=C(N[C@@H]1CCC[C@H](n2c(-c3ccccc3F)nc3cnc(-c4ncco4)cc32)[C@H]1O)c1ncc(Cl)s1` [Example 249, 5-chloro-N-((1R,2S,3S)-3-(2-(2-fluorophenyl)-6-(oxazol-2-yl)-1H-imidazo[4,5-c]pyridin-1-yl)-2-hydroxycyclohexyl)thiazole-2-carboxamide], the figures for the pIC50 against BCAT2 [1] and at BCAT2 [2] were 6.00 to 6.30 and 6.30 to 7.00, respectively.

For the molecule `O=C(N[C@H]1CCC[C@@H](n2c(-c3ccccc3F)nc3cnc(-c4ncnn4C(F)F)cc32)C1)c1ncc(Cl)s1` [Example 376, 5-chloro-N-((1S,3R)-3-(6-(1-(difluoromethyl)-1H-1,2,4-triazol-5-yl)-2-(2-fluorophenyl)-1H-imidazo[4,5-c]pyridin-1-yl)cyclohexyl)thiazole-2-carboxamide], the “BCAT2 Cell Inhibition” value at BCAT2 [1] is given as “E”. In addition, the pIC50 at BCAT2 [2] was 6.00 to 6.30.

As for `COc1cccc(F)c1-c1nc2cnc(-c3nc[nH]n3)cc2n1[C@H]1CCCC[C@@H](NC(=O)c2ccc(Cl)s2)[C@@H]1O` [Example 406, 5-chloro-N-((1R,2S,3S)-3-(2-(2-fluoro-6-methoxyphenyl)-6-(1H-1,2,4-triazol-3-yl)-1H-imidazo[4,5-c]pyridin-1-yl)-2-hydroxycycloheptyl)thiophene-2-carboxamide], the “BCAT2 Cell Inhibition” value on BCAT2 [1] is “E”. Further, on BCAT2 [2], the negative logarithm of the IC50 (pIC50) was 6.00 to 6.30.

These data come from US20260159512A1, “BCAT2 INHIBITORS” (AGIOS PHARMACEUTICALS, INC., priority 2021, published 2026).
